Results from US10428099B2, “Pharmaceutical co-crystal composition and use thereof” (SYN-NAT PRODUCTS ENTERPRISE LLC, priority 2015, dated 2019).
pIC50: −log10 of the molar value. Where two headings read alike, the source gives them in different places.

Assays:
[1] = test system: HL-7002 cells; assay: cells; details: Homo sapiens, Hepatocyte
[2] = test system: HL-7002 cells; details: step-wise concentrations 0.01 to 300 μM, OD490, FIG. 3 and FIG. 7
[3] = test system: HT29 cells; assay: MTS cell viability assay in colorectal cancer cell line HT29; format: cell-based; details: step-wise concentrations 0.01 to 300 μM, OD490, FIG. 6
Procedure: HT29 cells are a colorectal cancer cell line. […] The index of cell growth repression ratio was obtained by comparing the OD490 data of treatment group to the negative control. The drug response rate IC50 was calculated with the SPSS 16.0 system.
(§1) The cells were cultured in RPMI+5% Fetal Bovine Serum (FBS).
(§2) The cells were monitored daily, and the cell viability was evaluated with the Promega CellTiter 96 AQueous One Solution Cell Proliferation Assay (Promega, Madison, Wis., USA) according to the manufacture manuals. The cell viability was monitored at OD490 reading in a bio-spectrometer (Perkin Elmer, Walthan, Mass., USA).
(§3) Data analysis: The OD490 reading data were collected hourly from 1 h to 4 h after the addition of lysis buffer. The index of cell growth repression ratio was obtained by comparing the OD490 data of treatment to the negative control. The drug response rate IC50 was calculated with the SPSS 16.0.

[4] = test system: HEK293 cells; details: step-wise concentrations 0.01 to 300 μM, OD490, FIG. 4 and FIG. 8
[5] = test system: HCT-116 cells; assay: MTS cell viability assay in colorectal cancer cell line HCT-116; format: cell-based; details: step-wise concentrations 0.01 to 300 μM, OD490, FIG. 5, read-out: IC50 for the reduction of HCT-116 cell number
Procedure: (§4) The index of cell growth repression ratio was obtained by comparing the OD490 data of treatment group to the negative control. The drug response rate IC50 was calculated with the SPSS 16.0 system.
as §1, §2, §3

[6] = test system: PC-3 cells; assay: MTS cell viability assay (CellTiter 96 AQueous One) in PC-3 prostate cancer cells; format: cell-based, human; details: step-wise concentrations 0.01 to 300 μM, OD490, FIG. 1
Procedure: as §4
(§5) Cell culture: Prostate cancer cell lines LNCaP and PC-3 were purchased from ATCC (Manassas, Va.). […] The cells were cultured in RPMI+5% Fetal Bovine Serum (FBS).
(§6) The cells treated with the solvents were used as the negative control, and cisplatin and docetaxel were used as the positive controls. The cells were monitored daily, and the cell viability was evaluated with the Promega CellTiter 96 AQueous One Solution Cell Proliferation Assay (Promega, Madison, Wis., USA) according to the manufacture manuals. The cell viability was monitored at OD490 reading in a bio-spectrometer (Perkin Elmer, Walthan, Mass., USA).
as §3

[7] = test system: LNCaP cells; assay: MTS cell viability assay (CellTiter 96 AQueous One) in LNCaP prostate cancer cells; format: cell-based, human; details: step-wise concentrations 0.01 to 300 μM, OD490, FIG. 2
Procedure: as §4, §5, §6
Data analysis: The OD490 reading data were collected hourly from 1 h to 4 h after the addition of lysis buffer. The index of cell growth repression ratio was obtained by comparing the OD490 data of treatment to the negative control.

Molecule | pIC50 [1] | pIC50 [2] | pIC50 [3] | pIC50 [4] | pIC50 [5] | pIC50 [6] | pIC50 [7]
CC(=O)O[C@@]12CO[C@@H]1C[C@H](O)[C@@]1(C)C(=O)[C@H](O)C3=C(C)[C@@H](OC(=O)[C@H](O)[C@@H](NC(=O)OC(C)(C)C)c4ccccc4)C[C@@](O)([C@@H](OC(=O)c4ccccc4)[C@H]21)C3(C)C [docetaxel] | 7.02 | – | – | – | – | – | –
O=C1[O][Pt]2([NH][C@@H]3CCCC[C@H]3[NH]2)[O]C1=O [oxaliplatin] | – | 5.61 | 4.52 | 4.99 | 5.09 | – | –
cisplatin | – | 5.70 | – | 5.16 | – | 5.60 | 5.65
